Assay results from patent publication US8513287B2, “Heterocyclic ring and phosphonoxymethyl group substituted pyridine derivatives and antifungal agent containing same” (Eisai R&D Management Co., Ltd., priority 2007, dated 2013).
In brackets after ≈: the same amount, converted by molar mass. Like-named read-outs stand apart in the source and are kept apart here.

What was measured:
physchem = settings: 25 °C
Experimental: 3-(3-(4-(Pyridin-2-yloxymethyl)-benzyl)-isoxazol-5-yl)-pyridin-2-ylamine described in Reference Example 1, which is the parent compound, and the compound of Example 1 were compared for solubility in a Britton-Robinson buffer (ionic strength: 0.3) at 25° C.

[1] = system: C. albicans E81022 strain; assay: Experimental systemic candidal infection model in mice; assay type: in vivo; settings: for Mean Survival Days: tail vein at 0.5 and 9 hours after infection, observed until 14 days
Experimental: (1) Preparation of Fungal Inoculant
A standing culture of C. albicans E81022 strain was carried out for 24 hours at 35° C. in sabouraud dextrose agar medium (Difco), and the recovered fungal cells were suspended in sterile physiological saline (Otsuka Pharmaceutical). By counting the fungal number on cytometry plate, the suspension was diluted to 2×10^7 cells/mL with sterilized physiological saline to serve fungal inoculum.
The fungal inoculum was used in an amount of 0.2 mL to inoculate the mice in the tail vein (4×10^6 cells/mouse).
(3) Preparation of Agent Solution, and Treatment
The compound of Example 1 was dissolved in concentrations of 13 mg/mL and 3.25 mg/mL with a 50 mM glycine buffer with a pH of 10 (Wako Pure Chemicals), these solutions were then diluted 10 times with 5% glucose (Otsuka Pharmaceutical). At 0.5 and 9 hours after infection, 0.2 mL of the agent solution was administered into a tail vein of the mice. The agent concentrations were 2.5 and 10 mg/kg (calculated as the active form). The number of animals in one group was 5 animals.
The protective effect was determined by observing life/death until 14 days after infection and calculating the mean survival days. The protective effect on the systemic candidal infection was measured for the compound of Example 1 by the method described in section 2.

[2] = In vitro activity compared with the parent compound; settings: ratio to parent compound
[3] = Pharmacokinetic evaluation in mice; assay type: in vivo, ICR mice; settings: tail vein, 3 mg/kg, FIG. 15
Experimental: (§1) (1) Preparation of Administration Solution
(§2) (2) Administration, and Sampling of Blood and Plasma
Using five-week-old female ICR mice (Charles River Japan), with the number of mouse in one group being 2 mice, the compound according to the present invention and an active form thereof were administered into the tail vein in a dose of 3 mg/kg. The tail vein was punctured 0.25, 0.5, 1.5, 3, 5, and 8 hours after administration, and blood was collected with a heparin-treated pipette.
(§3) (3) Plasma Concentration Measurement Method

[4] = in vivo, 0.4 mg/kg
Experimental: as §1, §2
Blood was collected from the radial cutaneous vein 0.25, 0.5, 1, 2, 4, and 6 hours after administration using a heparin-treated syringe. The blood samples were put into sampling tubes and stored under ice cooling, they were then centrifuged for 5 minutes at 10,500×g and at 4° C. The plasma thus obtained was accurately divided into 5 μL amounts and stored at −20° C. until they were analyzed.
as §3
Imipramine hydrochloride (Sigma) was dissolved in a mixed solution of acetonitrile and methanol (1:1) so that the concentration would be 0.5 μmol/L, to prepare an internal standard substance solution (IS solution). The plasma was melted, 200 μL of IS solution was then added thereto and mixed, and this was centrifuged (deproteinated) for 10 minutes at 1500×g and at 4° C., the supernatant was then analyzed by LC-MS (Waters).

SMILES | solubility (physchem; pH 5, aqueous buffer) | solubility (physchem; pH 7, aqueous buffer) | solubility (physchem; pH 8, aqueous buffer) | solubility (physchem; pH 9, aqueous buffer) | Mean Survival Days ([1]; 3.25 mg/kg (calculated as active form: 2.5 mg/kg)) | Mean Survival Days ([1]; 13 mg/kg (calculated as active form: 10 mg/kg)) | protective effect on the systemic candidal infection (survival versus untreated group) ([1]; life/death until 14 days after infection) | in vitro activity with respect to the parent compound (Reference Example 1) [2] | plasma concentration of the active form after administration of the compound of Example 1 [3] | plasma concentration of the compound of Example 1 [3] | plasma concentration of the active form after administration of the compound of Example 1 [4] | plasma concentration of the compound of Example 1 [4] | solubility (physchem; Britton-Robinson buffer, pH 5, aqueous buffer) | solubility (physchem; Britton-Robinson buffer, pH 7, aqueous buffer) | solubility (physchem; Britton-Robinson buffer, pH 8, aqueous buffer) | solubility (physchem; Britton-Robinson buffer, pH 9, aqueous buffer)
Nc1c(-c2cc(Cc3ccc(COc4ccccn4)cc3)no2)ccc[n+]1COP(=O)([O-])O [Example 1, 2-Amino-1-((phosphonoxy)methyl)-3-(3-((4-((2-pyridinyloxy)methyl)phenyl)methyl)-5-isoxazolyl)-pyridinium] | 1900 µg/mL (≈ 4.06 mM) | 10500 µg/mL (≈ 22.4 mM) | 16400 µg/mL (≈ 35 mM) | > 21100 µg/mL | 7.4 days | 12.8 days | survived for a longer time as compared to the untreated group | 1/100 | increased quickly from immediately after administration | decreased quickly after administration | rose quickly | under the detection limit | – | – | – | –
Nc1ncccc1-c1cc(Cc2ccc(COc3ccccn3)cc2)no1 [Parent compound, 3-(3-(4-(Pyridin-2-yloxymethyl)-benzyl)-isoxazol-5-yl)-pyridin-2-ylamine, reference compound] | – | – | – | – | – | – | – | – | – | – | – | – | < 100 µg/mL | < 100 µg/mL | < 100 µg/mL | < 100 µg/mL
